Assay results: patent publication US20180312539A1, “METHODS FOR PREPARING HIGH THROUGHPUT PEPTIDOMIMETICS, ORALLY BIOAVAILABLE DRUGS AND COMPOSITIONS CONTAINING SAME” (University of Southern California, priority 2011, published 2018)

Tests used:
[1] = set-up: species or system C57BL6 mice; conditions: mouse, in vivo, po, 10 mg/kg
Method: The following peptides were synthesized for oral administration: […](FAM) (SEQ ID NO: 14), […](FAM)DK(Palmitoleic acid) (SEQ ID NO: 15), and […](FAM) (SEQ ID NO: 16), wherein FAM is a lysine derivative containing fluorescein. All peptides were cyclized from the side chain to lysine to the N-terminus as previously described. Anesthetized C57BL6 mice had peptide administered at a dose of 10 mg/kg by oral gavage. After administration, mice were removed from isoflurane. At various time points, blood samples were taken by orbital bleeding as previously described. Peaks were normalized to a 15 minute time point from mice that had peptide administered by IV injection.
The following peptides were synthesized for oral administration: […](FAM) (SEQ ID NO: 14), […](FAM) (SEQ ID NO: 16), […](FAM)DK(biotin) (SEQ ID NO: 38), and […](FAM)DK(Palmitoleic acid) (SEQ ID NO: 15). All peptides were cyclized from the side chain to lysine to the N-terminus as previously described in Millward, S. W. et al. (2007) ACS Chem. Biol. 2:625. Anesthetized C57BL6 mice had peptide administered at a dose of 10 mgs/Kg by oral gavage. After administration, mice were removed from isoflurane. At various time points, blood samples were taken by orbital bleeding as previously described. Peaks were normalized to a 20 minute time point from mice that had peptide administered by IV injection. Area under the curve was analyzed by Graphpad 5.0.
In addition to accessing intracellular targets in cell culture, deriving a simple modification that would facilitate oral bioavailability of peptidic ligands would be greatly beneficial for therapeutic development. Intestinal absorption of both fatty acids and biotin is nearly 100% efficient. Zempleni, J. and Mock, D. M. (1999) The American Journal of Clinical Nutrition 69:504. […] Applicants synthesized a protease resistant peptide with the sequence […]-mod (designated SUPR peptide) (SEQ ID NO: 50), where A is N-methyl alanine, the peptide is cyclized from lysine to the N-terminus, and K(mod) is lysine with a modified sidechain including either biotin or palmitoleic acid. Palmitoleic acid is a monounsaturated fatty acid chosen for its ability to bind human serum albumin, and its low melting point allowing for more favorable solubility of conjugated peptides as compared to […] fatty acid conjugates. This peptide was administered to mice at a dose of 10 mg/kg by oral gavage. At various time points, blood was taken from the mice by orbital bleeding. After processing, fluorescence was quantified and compared to the maximum signal obtained by IV injection of peptide at the same dose.

proteinase K = proteinase K (Parengyodontium album, UniProt P06873)
Method: Immobilized chymotrypsin and proteinase K purchased from Sigma. 250 nmoles of peptide in DMSO were added to 50 mM sodium phosphate buffer (pH=8.0) with a final DMSO concentration of 2%. […] The graph was generated by fitting the data to a one phase exponential decay equation (GraphPad Prism 5.0).
Protease resistance enhancement was then tested. The simplest solution for enhancing protease resistance would be the removal of amino acids recognized by protease K and chymotrypsin.
Next the role of each of the N-methyl alanines was analyzed independently. […] For example sequence modifications, including N-methylation would be accomplished one amino acid at a time, walking the peptide from low protease stability to high stability. Whether this is a viable approach for making a peptide like SUPR was investigated. Towards that end, Applicants walked back from SUPR peptide to something closer to cycGIBP, and to determine if there was a gradual decrease in protease resistance. Towards that end, three peptides were synthesized. Two of them contained only one NMA (alanine was substituted for NMA), and the other had no NMA. It was hypothesized that if one could walk back to cycGIBP, then one would expect the loss of a single N-methyl to have some effect on reducing protease resistance, but to still be better than cycGIBP.

Gαi1 = target: T1, Gαi1 (Homo sapiens, UniProt P63096); assay: TNT pulldown specificity analysis with radiolabeled Gα subunits; assay type: binding; conditions: C-terminally biotinylated peptide on NeutrAvidin-agarose
T1 construct: made in house; host or cells: TNT (coupled in vitro transcription/translation), radiolabeled
Method: TNT pulldown experiments were carried out as previously described in Stoop and Craik (2003) Nat. Biotech 21:1063. […] Control NeutrAvidin-agarose was treated with DMSO alone. Binding reactions proceeded for 1 h at 4° C. followed by filtration and washing with 1× selection buffer. The matrix was analyzed by scintillation counting, and the percent bound was determined by the matrix counts divided by the total counts as determined by TCA precipitation. […] The peptide was immobilized on NeutrAvidin-agarose and used to pull down radiolabeled protein. […] This was true both for specificity within the Gα family as well as state specificity of Gαi1. In fact, there was a small enhancement of specificity for the target Gαi1 over a protein with nearly 85% sequence similarity, Gαi2. […] The ability to retain or enhance selectivity for a desired target is of tremendous importance for therapeutic and diagnostic development.

Human serum digests = assay type: in vitro ADME; conditions: reconstituted human serum, 37° C
Method: (§1) Delipidated/lyophilized human serum was purchased from Thermo Scientific and reconstituted as per manufacturer's instructions. 250 nmoles of peptide in 50 μLs of sodium phosphate buffer (pH=8.0) with 10% DMSO was added to 1 mL of reconstituted serum and incubated at 37° C. 100 μL aliquots were taken at various time points and quenched in 300 μLs of acetonitrile. Samples were spun down and decanted to remove precipitate followed by dilution in water to 1.5 mLs. Samples were then analyzed by HPLC as described in the protease resistance experiment.
as §1, with “μL” for “μLs”, “mLs.” for “mLs. Samples were then analyzed by HPLC as described in the protease resistance experiment.”
The human serum and human microsome stability of the Gαi1 binding SUPR peptide ([…] (SEQ ID NO: 7)) were compared to the peptides ability to bind to Her-2. Beginning with the human serum analysis, peptides were digested with 95% human serum at 37° C. Analysis was performed by HPLC. […] Therefore, intact peptide is only completely unmodified peptide. Digestions of SUPR, HMP, and PMP are show have lives very similar to SUPR. Digestion of PMP2 is in progress. Without being bound by theory, Applicants theorize that the fitting for HMP may have produced an artificially low half-life.

[2] = mouse, iv
Method: 200 μL of peptide was administered by IV injection into the tail vein of C57BL6 mice at a dose of 10 mg/kg. 50 μL blood samples were taken at various time points by orbital bleeding using heparin coated capillary tubes and isoflurane for anesthesia. Samples are diluted to 600 μLin TE buffer (pH=8.0) then filtered by centrifugation through a 3000 MWCO filter. The flowthrough was analyzed on a Shimadzu RF-5301 PC fluorometer. Time points were integrated and analyzed using Prism 5.0 software.
To that end mice were administered peptide conjugated to fluorescein by IV injection into the tail vein. Blood samples were taken by orbital bleeding. Blood peptide concentration was determined by comparing fluorescence to a 15 minute time point.

Sequence of proteinase K (P06873 106-384): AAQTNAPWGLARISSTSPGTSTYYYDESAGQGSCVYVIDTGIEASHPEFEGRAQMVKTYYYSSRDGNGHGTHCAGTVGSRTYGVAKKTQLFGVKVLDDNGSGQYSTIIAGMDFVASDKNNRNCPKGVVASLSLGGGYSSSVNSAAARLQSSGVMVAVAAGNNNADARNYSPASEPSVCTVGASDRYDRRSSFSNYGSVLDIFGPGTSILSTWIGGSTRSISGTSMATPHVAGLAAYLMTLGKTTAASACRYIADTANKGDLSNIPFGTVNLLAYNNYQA
T1 sequence (P63096 whole entry): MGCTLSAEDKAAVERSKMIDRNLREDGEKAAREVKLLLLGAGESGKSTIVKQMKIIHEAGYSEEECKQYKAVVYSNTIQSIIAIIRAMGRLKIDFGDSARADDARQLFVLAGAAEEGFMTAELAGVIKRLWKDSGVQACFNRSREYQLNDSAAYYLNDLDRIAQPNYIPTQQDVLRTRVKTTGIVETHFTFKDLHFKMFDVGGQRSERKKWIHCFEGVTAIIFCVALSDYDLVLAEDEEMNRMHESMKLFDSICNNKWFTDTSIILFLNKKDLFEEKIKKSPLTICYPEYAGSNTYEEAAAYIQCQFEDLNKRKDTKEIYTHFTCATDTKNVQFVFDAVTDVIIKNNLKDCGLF

For CSCC[C@@H]1NC(=O)CCCC(=O)NCCCC[C@@H](C(N)=O)NC(=O)[C@H](CO)NC(=O)[C@H](Cc2c[nH]c3ccccc23)NC(=O)[C@H](CCC(N)=O)NC(=O)[C@H](C)N(C)C(=O)[C@H](Cc2ccc(O)cc2)NC(=O)[C@H](CCC(=O)O)NC(=O)[C@H](Cc2ccc(O)cc2)NC(=O)[C@H](C)N(C)C(=O)[C@H](Cc2ccc(O)cc2)NC(=O)[C@H](Cc2ccccc2)NC1=O [cycSUPR], the oral uptake efficiency [1] was “did not show any detectable oral uptake”, the “fold more resistant to proteinase K” value (proteinase K) was “approximately 5200 fold” and the “digest sites found from proteinase K” value (proteinase K; seven theoretical digest sites) was 1. The “specificity within the Gα family and state specificity of Gαi1” value (Gαi1) was “retained specificity of its parent molecule”, the half-life (Human serum digests) was 160 h and the “fold increase in in vivo half-life over cycGIBP” value [2] was “roughly 35 fold”.
